{"source": "patent US8895583B2", "about": "“Soluble guanylate cyclase activators” (Merck Sharp & Dohme Corp., priority 2010, dated 2014)", "biological_target": "T1, sGC α1/β1 heterodimer (Homo sapiens, UniProt Q02108+Q02153)", "T1 construct": "expressed in transfected cells", "T1 sequence (Q02108 1-690 partner)": "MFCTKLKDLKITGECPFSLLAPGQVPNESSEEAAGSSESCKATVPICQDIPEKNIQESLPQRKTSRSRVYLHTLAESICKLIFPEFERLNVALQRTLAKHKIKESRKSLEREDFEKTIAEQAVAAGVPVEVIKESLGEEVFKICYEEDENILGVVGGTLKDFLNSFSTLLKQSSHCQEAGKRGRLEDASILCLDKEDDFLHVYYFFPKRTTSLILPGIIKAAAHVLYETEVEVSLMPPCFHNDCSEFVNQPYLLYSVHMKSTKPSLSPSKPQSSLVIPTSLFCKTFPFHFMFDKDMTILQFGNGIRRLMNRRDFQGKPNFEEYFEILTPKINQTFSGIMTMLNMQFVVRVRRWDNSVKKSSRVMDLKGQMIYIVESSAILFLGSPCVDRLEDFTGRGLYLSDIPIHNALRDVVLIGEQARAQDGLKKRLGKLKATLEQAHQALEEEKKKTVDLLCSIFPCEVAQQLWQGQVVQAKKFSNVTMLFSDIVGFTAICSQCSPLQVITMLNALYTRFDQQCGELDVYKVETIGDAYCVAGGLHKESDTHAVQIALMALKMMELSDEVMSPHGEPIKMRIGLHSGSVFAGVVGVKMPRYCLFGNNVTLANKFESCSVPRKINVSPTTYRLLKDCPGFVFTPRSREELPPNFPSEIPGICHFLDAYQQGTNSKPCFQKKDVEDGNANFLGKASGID", "T1 sequence (Q02153 1-619)": "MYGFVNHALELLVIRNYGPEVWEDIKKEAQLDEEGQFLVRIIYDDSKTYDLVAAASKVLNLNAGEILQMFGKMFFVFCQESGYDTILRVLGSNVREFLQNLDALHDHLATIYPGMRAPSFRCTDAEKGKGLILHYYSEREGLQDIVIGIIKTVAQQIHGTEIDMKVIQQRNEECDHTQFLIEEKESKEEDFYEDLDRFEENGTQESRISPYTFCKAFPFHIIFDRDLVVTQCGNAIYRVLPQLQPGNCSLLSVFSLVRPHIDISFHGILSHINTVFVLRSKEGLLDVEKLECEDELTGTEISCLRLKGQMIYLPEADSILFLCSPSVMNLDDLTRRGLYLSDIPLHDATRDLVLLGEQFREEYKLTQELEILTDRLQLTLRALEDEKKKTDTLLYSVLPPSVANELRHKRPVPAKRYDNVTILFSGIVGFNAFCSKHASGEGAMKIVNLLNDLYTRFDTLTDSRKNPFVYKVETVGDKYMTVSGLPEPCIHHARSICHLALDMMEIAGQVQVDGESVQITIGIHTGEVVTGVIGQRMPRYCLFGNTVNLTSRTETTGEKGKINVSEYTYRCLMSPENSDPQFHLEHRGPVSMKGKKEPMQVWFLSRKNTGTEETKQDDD", "test": "Cell-based sGC Functional Assay (cGMP level by HTRF in CHO-K1/sGC cells)", "details": "with ODQ incubation (10 μM); for EC50: read-out: IP (nM) inflection point; for fold induction: read-out: maximum fold induction over DMSO control", "from_the_text": "Cell-based sGC Functional Assay\nA CHO-K1 cell line stably expressing the sGC α1/β1 heterodimer was generated using a standard transfection protocol. CHO-K1 cells were transfected with plasmids pIREShyghsGCα1 and pIRESneo-hsGCβ1 simultaneously using FUGENE reagent. Clones that stably express both subunits were selected with hygromycin and neomycin for ˜2 weeks. Clone #7 was chosen for the assay and was designated CHO-K1/sGC. CHO-K1/sGC cells were maintained in F-K12 medium containing 10% heat-inactivated Fetal Bovine Serum (FBS), 100 μg/mL penicillin/streptomycin, 0.5 mg/mL hygromycin and 0.25 mg/mL G418. On the day of the assay, cells were harvested in EBSS (Earle's balanced salt solution) Assay Buffer (EAB) containing 5 mM MgCl2, 10 mM HEPES (4-(2-hydroxyethyl)piperazine-1-ethanesulfonic acid) and 0.05% BSA (bovine serum albumin) and cell density was adjusted to 0.75−1.25×10^6 cells/ml with EAB. IBMX (3-isobutyl-1-methylxanthin, 0.5 mM) was added to inhibit degradation of cGMP. Compounds were diluted from DMSO stock solutions and added to the assay at a final DMSO concentration of 1%. Cells were incubated with compounds in the presence and absence of 10 μM of 1H-(1,2,4)oxadiazolo(4,3-a) quinoxalin-1-one (ODQ) for 1 hr at 37° C. At the end of the incubation period, the reaction was terminated and the cells were lysed. The level of intracellular cGMP was determined using an HTRF-based assay kit (CisBio, 62GM2PEC), which detects the displacement of a fluorescence labeled cGMP from its specific antibody. The amount of cGMP was plotted against compound concentration in PRISM software and the inflection point (IP) and maximum fold induction over DMSO control were derived from the plot.", "data": [{"smiles": "O=C(O)c1cnn(-c2cccc(-c3cc(Cl)ccc3-c3ccc(C4CCN(CC(F)(F)F)CC4)cc3)n2)c1C(F)(F)F", "note": "[Example 60, 1-(6-{4-chloro-4′-[1-(2,2,2-trifluoroethyl)piperidin-4-yl]biphenyl-2-yl}pyridin-2-yl)-5-(trifluoromethyl)-1H-pyrazole-4-carboxylic acid]", "values": [{"measurement": "EC50", "value": 14.6, "unit": "nM"}, {"measurement": "fold induction", "value": 231}]}, {"smiles": "O=C(O)c1cnn(-c2cccc(-c3cc(C(F)(F)F)cnc3-c3ccc(C4CCN(CC(F)(F)F)CC4)cc3)n2)c1C(F)(F)F", "note": "[Example 61, 1-[2′-{4-[1-(2,2,2-trifluoroethyl)piperidin-4-yl]phenyl}-5′-(trifluoromethyl)-2,3′-bipyridin-6-yl]-5-(trifluoromethyl)-1H-pyrazole-4-carboxylic acid]", "values": [{"measurement": "EC50", "value": 16.3, "unit": "nM"}, {"measurement": "fold induction", "value": 248}]}, {"smiles": "O=C(O)c1cnn(-c2cccc(-c3cc(Cl)ccc3-c3ccc(C4CCN(C(=O)C5CC5)CC4)cc3)n2)c1C(F)(F)F", "note": "[Example 94, 1-(6-{4-chloro-4′-[1-(cyclopropylcarbonyl)piperidin-4-yl]biphenyl-2-yl}pyridin-2-yl)-5-(trifluoromethyl)-1H-pyrazole-4-carboxylic acid]", "values": [{"measurement": "EC50", "value": 30.2, "unit": "nM"}, {"measurement": "fold induction", "value": 281}]}, {"smiles": "COC(=O)N1CCC(c2ccc(-c3ccc(C(F)(F)F)cc3-c3cccc(-n4ncc(C(=O)O)c4C(F)(F)F)n3)cc2)CC1", "note": "[Example 127, 1-{6-[4′-[1-(methoxycarbonyl)piperidin-4-yl]-4-(trifluoromethyl)biphenyl-2-yl]pyridin-2-yl}-5-(trifluoromethyl)-1H-pyrazole-4-carboxylic acid]", "values": [{"measurement": "EC50", "value": 15.8, "unit": "nM"}, {"measurement": "fold induction", "value": 119}]}, {"smiles": "O=C(O)c1cnn(-c2cccc(-c3cc(F)ccc3-c3ccc(C4CCN(CCC(F)(F)F)CC4)cc3)n2)c1C(F)(F)F", "note": "[Example 136, 1-(6-{4-fluoro-4′-[1-(3,3,3-trifluoropropyl)piperidin-4-yl]biphenyl-2-yl}pyridin-2-yl)-5-(trifluoromethyl)-1H-pyrazole-4-carboxylic acid]", "values": [{"measurement": "EC50", "value": 78.8, "unit": "nM"}, {"measurement": "fold induction", "value": 162}]}, {"smiles": "O=C(O)c1cnn(-c2cccc(-c3cc(Cl)ccc3-c3ccc(N4CCN(CC(F)(F)F)CC4)cc3)n2)c1C(F)(F)F", "note": "[Example 175, 1-(6-{4-chloro-4′-[4-(2,2,2-trifluoroethyl)piperazin-1-yl]biphenyl-2-yl}pyridin-2-yl)-5-(trifluoromethyl)-1H-pyrazole-4-carboxylic acid]", "values": [{"measurement": "EC50", "value": 9.8, "unit": "nM"}, {"measurement": "fold induction", "value": 703}]}]}
